Tests used:
Assay type in all cases: biochemical
B-Raf V600E = target: T1, B-Raf V600E (Homo sapiens, UniProt P15056, V600E); experiment: AlphaScreen kinase assay, B-Raf V600E; settings: read-out: IC50, activity toward kinase B-Raf V600E
T1 construct: P4254. pFastBacBD-CDC37 BRAF D437-K722-X, V600E; His6 with pFastBac HT leader (TEV site) (N); made in house; host or cells: Sf9 (baculovirus; chaperone CDC37 co-expressed)

c-Raf-1 = target: T2, c-Raf-1 (Homo sapiens, UniProt P04049); experiment: AlphaScreen kinase assay, c-Raf-1; settings: read-out: IC50, activity toward kinase c-Raf-1
T2 construct: purchased Upstate Biotechnology
T2 sequence (P04049 whole entry): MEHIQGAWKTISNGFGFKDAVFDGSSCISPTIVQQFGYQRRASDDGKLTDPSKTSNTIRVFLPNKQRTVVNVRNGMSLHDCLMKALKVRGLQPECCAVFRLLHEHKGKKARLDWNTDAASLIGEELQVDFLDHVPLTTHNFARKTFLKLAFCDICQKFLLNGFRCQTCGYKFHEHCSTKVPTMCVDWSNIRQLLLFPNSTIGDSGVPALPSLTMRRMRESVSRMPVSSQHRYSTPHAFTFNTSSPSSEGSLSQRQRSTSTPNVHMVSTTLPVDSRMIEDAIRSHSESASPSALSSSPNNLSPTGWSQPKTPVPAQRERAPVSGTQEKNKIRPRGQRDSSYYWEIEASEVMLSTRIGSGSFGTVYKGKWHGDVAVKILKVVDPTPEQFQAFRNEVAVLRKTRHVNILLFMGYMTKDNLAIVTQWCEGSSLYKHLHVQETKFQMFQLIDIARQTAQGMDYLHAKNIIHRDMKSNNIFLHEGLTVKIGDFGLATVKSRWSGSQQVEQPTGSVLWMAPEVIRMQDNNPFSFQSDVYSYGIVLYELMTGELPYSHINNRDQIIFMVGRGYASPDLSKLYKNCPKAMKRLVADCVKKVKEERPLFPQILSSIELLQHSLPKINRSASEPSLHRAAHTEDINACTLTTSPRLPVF

B-Raf = target: T3, B-Raf (Homo sapiens, UniProt P15056); experiment: AlphaScreen kinase assay, B-Raf; settings: read-out: IC50, activity toward kinase B-Raf
T3 construct: purchased Upstate Biotechnology
T3 sequence (P15056 whole entry): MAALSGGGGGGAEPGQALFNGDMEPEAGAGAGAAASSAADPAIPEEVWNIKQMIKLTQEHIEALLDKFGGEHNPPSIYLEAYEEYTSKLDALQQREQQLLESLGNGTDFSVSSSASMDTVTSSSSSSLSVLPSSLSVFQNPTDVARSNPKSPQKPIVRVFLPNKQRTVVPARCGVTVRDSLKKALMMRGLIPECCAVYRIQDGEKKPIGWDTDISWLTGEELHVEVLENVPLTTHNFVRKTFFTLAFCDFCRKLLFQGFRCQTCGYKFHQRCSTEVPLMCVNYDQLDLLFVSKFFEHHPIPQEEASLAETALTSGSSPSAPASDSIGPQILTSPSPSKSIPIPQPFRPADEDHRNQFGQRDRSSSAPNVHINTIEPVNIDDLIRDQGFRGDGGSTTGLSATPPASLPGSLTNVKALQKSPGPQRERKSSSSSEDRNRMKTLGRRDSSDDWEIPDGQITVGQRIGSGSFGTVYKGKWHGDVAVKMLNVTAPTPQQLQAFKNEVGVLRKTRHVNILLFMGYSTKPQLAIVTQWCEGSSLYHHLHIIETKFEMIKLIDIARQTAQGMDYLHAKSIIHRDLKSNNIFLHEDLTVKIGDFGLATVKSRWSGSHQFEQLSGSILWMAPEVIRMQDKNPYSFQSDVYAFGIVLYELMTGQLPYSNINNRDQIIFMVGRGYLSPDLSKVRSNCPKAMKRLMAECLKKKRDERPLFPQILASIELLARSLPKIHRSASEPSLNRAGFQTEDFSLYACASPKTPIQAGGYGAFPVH

Flt1 = target: T4, Flt1 (Homo sapiens, UniProt P17948); experiment: AlphaScreen kinase assay, Flt1; settings: read-out: IC50, activity toward kinase Flt1
T4 construct: P1826.pETN6 BI-PTP FLT1 M799-D1165-X WT; His6 (N); made in house; host or cells: E. coli (PTP1B co-expressed)
T4 sequence (P17948 with tags, fused parts or gaps): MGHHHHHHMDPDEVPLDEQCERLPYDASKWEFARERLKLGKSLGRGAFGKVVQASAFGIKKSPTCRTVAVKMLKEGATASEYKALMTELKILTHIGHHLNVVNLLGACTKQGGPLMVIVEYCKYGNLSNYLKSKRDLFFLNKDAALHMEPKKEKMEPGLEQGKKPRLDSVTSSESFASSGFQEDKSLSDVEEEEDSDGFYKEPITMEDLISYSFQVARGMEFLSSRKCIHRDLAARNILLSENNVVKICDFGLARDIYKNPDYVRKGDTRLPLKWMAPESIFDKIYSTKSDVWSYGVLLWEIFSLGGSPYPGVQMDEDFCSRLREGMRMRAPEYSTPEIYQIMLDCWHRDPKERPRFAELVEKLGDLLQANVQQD

FGFR1 = target: T5, FGFR1 (Homo sapiens, UniProt P11362, C488A/C584S); experiment: AlphaScreen kinase assay, FGFR1; settings: read-out: IC50, activity toward kinase FGFR
T5 construct: P1351.pET N6 BI-PTP FGFR A458-E765-X C488A, C584S; made in house; host or cells: E. coli (PTP1B co-expressed)
T5 sequence (P11362 458-765 C488A/C584S): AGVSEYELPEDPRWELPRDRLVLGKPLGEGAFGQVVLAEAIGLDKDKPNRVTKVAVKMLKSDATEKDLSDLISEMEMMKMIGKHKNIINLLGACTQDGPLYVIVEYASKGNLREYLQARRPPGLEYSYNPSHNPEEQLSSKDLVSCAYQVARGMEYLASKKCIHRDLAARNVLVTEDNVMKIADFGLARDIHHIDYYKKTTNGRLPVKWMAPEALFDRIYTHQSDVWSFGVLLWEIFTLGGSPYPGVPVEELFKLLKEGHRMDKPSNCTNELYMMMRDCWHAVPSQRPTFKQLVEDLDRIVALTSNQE

Fms = target: T6, Fms (Homo sapiens, UniProt P07333); experiment: AlphaScreen kinase assay, Fms; settings: read-out: IC50, activity toward kinase Fms
T6 construct: purchased Upstate Biotechnology
T6 sequence (P07333 20-972): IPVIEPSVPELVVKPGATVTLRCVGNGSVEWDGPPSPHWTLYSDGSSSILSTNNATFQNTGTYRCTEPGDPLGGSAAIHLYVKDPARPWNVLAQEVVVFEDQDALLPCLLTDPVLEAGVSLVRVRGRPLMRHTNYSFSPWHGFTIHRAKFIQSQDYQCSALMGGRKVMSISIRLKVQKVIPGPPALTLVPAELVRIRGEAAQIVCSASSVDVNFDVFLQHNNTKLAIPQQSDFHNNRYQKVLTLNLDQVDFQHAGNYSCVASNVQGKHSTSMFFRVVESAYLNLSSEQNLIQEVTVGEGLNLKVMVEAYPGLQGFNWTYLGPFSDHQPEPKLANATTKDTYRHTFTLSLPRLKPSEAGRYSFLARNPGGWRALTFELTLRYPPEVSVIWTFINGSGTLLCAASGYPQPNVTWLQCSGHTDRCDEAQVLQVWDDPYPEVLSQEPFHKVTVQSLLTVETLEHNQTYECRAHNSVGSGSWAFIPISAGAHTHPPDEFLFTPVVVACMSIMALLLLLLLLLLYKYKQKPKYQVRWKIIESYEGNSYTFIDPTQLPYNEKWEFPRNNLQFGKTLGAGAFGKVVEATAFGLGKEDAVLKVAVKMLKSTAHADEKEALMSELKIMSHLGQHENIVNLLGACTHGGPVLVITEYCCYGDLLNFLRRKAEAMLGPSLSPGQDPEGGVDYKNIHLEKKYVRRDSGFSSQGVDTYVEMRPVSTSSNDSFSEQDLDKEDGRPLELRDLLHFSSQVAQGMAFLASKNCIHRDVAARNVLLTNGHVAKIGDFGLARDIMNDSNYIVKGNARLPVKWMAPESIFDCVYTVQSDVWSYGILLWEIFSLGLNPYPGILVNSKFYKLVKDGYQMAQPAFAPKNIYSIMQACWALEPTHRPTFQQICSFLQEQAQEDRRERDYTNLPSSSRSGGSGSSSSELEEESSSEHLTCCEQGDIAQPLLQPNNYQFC

Kit = target: T7, Kit (Homo sapiens, UniProt P10721); experiment: AlphaScreen kinase assay, Kit; settings: read-out: IC50, activity toward kinase Kit
T7 construct: P1332.N6 BI PTP KIT M552-K948-X COD; His6 (N); made in house; host or cells: E. coli (PTP1B co-expressed)
T7 sequence (P10721 with tags, fused parts or gaps): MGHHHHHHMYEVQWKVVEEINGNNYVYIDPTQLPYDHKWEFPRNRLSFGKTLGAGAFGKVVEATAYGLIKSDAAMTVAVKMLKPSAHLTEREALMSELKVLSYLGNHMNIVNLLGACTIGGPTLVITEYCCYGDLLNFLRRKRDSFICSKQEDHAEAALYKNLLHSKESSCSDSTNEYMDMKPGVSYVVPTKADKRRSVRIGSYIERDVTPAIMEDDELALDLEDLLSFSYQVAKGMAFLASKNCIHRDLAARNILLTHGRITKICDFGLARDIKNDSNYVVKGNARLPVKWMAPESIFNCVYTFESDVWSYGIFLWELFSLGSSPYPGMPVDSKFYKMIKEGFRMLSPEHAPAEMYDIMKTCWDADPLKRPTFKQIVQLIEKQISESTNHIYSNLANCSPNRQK

Ret = target: T8, Ret (Homo sapiens, UniProt P07949); experiment: AlphaScreen kinase assay, Ret; settings: read-out: IC50, activity toward kinase Ret
T8 construct: P1378.pET-SF BI-PTP RET H661-R1012 HIS; made in house
T8 sequence (P07949 with tags, fused parts or gaps): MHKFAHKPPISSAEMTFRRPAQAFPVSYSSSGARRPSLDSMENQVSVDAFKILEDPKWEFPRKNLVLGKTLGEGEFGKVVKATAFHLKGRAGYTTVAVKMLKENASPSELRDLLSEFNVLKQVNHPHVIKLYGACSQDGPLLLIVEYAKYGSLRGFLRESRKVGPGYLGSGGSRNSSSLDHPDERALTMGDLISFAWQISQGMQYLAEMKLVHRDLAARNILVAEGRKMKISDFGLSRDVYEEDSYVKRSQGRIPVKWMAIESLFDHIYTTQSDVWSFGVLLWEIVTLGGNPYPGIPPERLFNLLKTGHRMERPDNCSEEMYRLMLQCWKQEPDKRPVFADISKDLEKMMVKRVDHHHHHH

T1 sequence (P15056 with tags, fused parts or gaps V600E): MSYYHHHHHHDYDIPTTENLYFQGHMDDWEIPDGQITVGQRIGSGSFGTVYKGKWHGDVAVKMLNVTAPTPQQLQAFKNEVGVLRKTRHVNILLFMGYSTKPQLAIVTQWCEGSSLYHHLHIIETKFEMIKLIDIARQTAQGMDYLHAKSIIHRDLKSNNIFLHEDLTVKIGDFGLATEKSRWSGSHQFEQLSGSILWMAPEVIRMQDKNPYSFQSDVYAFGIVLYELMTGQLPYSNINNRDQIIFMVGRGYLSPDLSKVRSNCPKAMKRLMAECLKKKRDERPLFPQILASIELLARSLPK

IC50 (B-Raf V600E)	IC50 (c-Raf-1)	IC50 (B-Raf)	IC50 (Flt1)	IC50 (FGFR1)	IC50 (Fms)	IC50 (Kit)	IC50 (Ret)	Compound
≤ 10 µM	≤ 10 µM	–	–	–	–	–	–	COc1cccc(Nc2ccnc3[nH]ccc23)c1 [Compound P-1065]
–	≤ 10 µM	–	–	–	–	–	–	c1cc2cc(N3CCOCC3)cnc2[nH]1 [Compound P-1118]
≤ 10 µM	–	≤ 10 µM	≤ 10 µM	≤ 10 µM	≤ 10 µM	≤ 10 µM	–	O=C(c1c(F)ccc(OC(F)F)c1F)c1c[nH]c2ncc(Br)cc12 [Compound P-1526, (5-Bromo-1H-pyrrolo[2,3-b]pyridin-3-yl)-(3-difluoromethoxy-2,6-difluoro-phenyl)-methanone]
–	≤ 10 µM	≤ 10 µM	–	–	–	–	–	CC(=O)Nc1cccc(Nc2ccnc3[nH]ccc23)c1 [Compound P-0941]
≤ 10 µM	≤ 10 µM	≤ 10 µM	–	–	–	–	–	CCCS(=O)(=O)Nc1cccc(C(=O)c2c[nH]c3ncc(F)cc23)c1F [Compound P-1028, propane-1-sulfonic acid [2-fluoro-3-(5-fluoro-1H-pyrrolo[2,3-b]pyridine-3-carbonyl)-phenyl]-amide]
≤ 10 µM	≤ 10 µM	≤ 10 µM	–	–	–	–	–	COC(c1ccc(N(Cc2ccc(Cl)cc2)C(=O)OC(C)(C)C)nc1)c1c[nH]c2ncc(Br)cc12 (stereo not shown) [Compound P-0779]
≤ 10 µM	≤ 10 µM	–	–	–	–	–	–	CCCS(=O)(=O)Nc1ccc(F)c(C(O)c2c[nH]c3ncc(N4CCOCC4)cc23)c1F (stereo not shown) [Compound P-1071]
–	≤ 10 µM	≤ 10 µM	–	–	–	–	–	CCOc1cccc(Nc2ccnc3[nH]ccc23)c1 [Compound P-1076]
≤ 10 µM	≤ 10 µM	–	–	≤ 10 µM	–	–	–	CCCC(=O)Nc1ccc(F)c(C(=O)c2c[nH]c3ncc(Br)cc23)c1F [Compound P-1283]
–	–	–	≤ 10 µM	≤ 10 µM	–	≤ 10 µM	≤ 10 µM	Cc1cc(C(=O)c2c[nH]c3ncc(-c4ccc(C(N)=O)cc4)cc23)nn1C [Compound P-0749]
–	≤ 10 µM	–	–	–	–	–	–	CC(C)Oc1cccc(Nc2ccnc3[nH]ccc23)c1 [Compound P-1079]
≤ 10 µM	–	≤ 10 µM	≤ 10 µM	–	≤ 10 µM	≤ 10 µM	–	O=C(c1c(F)ccc(NS(=O)(=O)c2cccc(C(F)(F)F)c2)c1F)c1c[nH]c2ncc(Cl)cc12 [Compound P-1599, N-[3-(5-Chloro-1H-pyrrolo[2,3-b]pyridine-3-carbonyl)-2,4-difluoro-phenyl]-3-trifluoromethyl-benzenesulfonamide]
≤ 10 µM	≤ 10 µM	≤ 10 µM	–	–	–	–	–	O=S(=O)(Nc1ccc(F)c(C(O)c2c[nH]c3ncc(F)cc23)c1F)c1ccccc1 (stereo not shown) [Compound P-1003]
≤ 10 µM	≤ 10 µM	–	–	≤ 10 µM	≤ 10 µM	≤ 10 µM	–	COc1cccc(Cc2c[nH]c3ncc(Br)cc23)c1F [Compound P-0535, 5-Bromo-3-(2-fluoro-3-methoxy-benzyl)-1H-pyrrolo[2,3-b]pyridine]
–	≤ 10 µM	–	–	≤ 10 µM	–	–	–	COC(=O)Nc1ccc(F)c(C(=O)c2c[nH]c3ncccc23)c1F [Compound P-0974, [2,4-Difluoro-3-(1H-pyrrolo[2,3-b]pyridine-3-carbonyl)-phenyl]-carbamic acid methyl ester]
–	≤ 10 µM	≤ 10 µM	–	–	–	–	–	c1ccc2cc(Nc3ccnc4[nH]ccc34)ccc2c1 [Compound P-0975]
–	≤ 10 µM	–	–	≤ 10 µM	–	–	–	CCCNS(=O)(=O)c1ccc(OC)c(C(=O)c2c[nH]c3ncc(-c4cccnc4)cc23)c1F [Compound P-1078]

IC50 (B-Raf V600E)	IC50 (c-Raf-1)	IC50 (B-Raf)	IC50 (Flt1)	IC50 (FGFR1)	IC50 (Fms)	IC50 (Kit)	IC50 (Ret)	Compound
≤ 10 µM	≤ 10 µM	–	–	≤ 10 µM	–	–	–	O=C(c1c(F)ccc(NS(=O)(=O)c2ccc(Cl)c(Cl)c2)c1F)c1c[nH]c2ncccc12 [Compound P-1015, 3,4-Dichloro-N-[2,4-difluoro-3-(1H-pyrrolo[2,3-b]pyridine-3-carbonyl)-phenyl]-benzenesulfonamide]
≤ 10 µM	≤ 10 µM	≤ 10 µM	–	–	–	–	–	Cc1nc2ccc(Nc3ccnc4[nH]ccc34)cc2s1 [Compound P-1014]
≤ 10 µM	≤ 10 µM	–	–	–	–	–	–	Clc1cnc2[nH]ccc2c1 [Compound P-1063]
≤ 10 µM	≤ 10 µM	≤ 10 µM	–	–	–	–	–	COC(c1ccc(NCc2ccc(C(F)(F)F)cc2)nc1)c1c[nH]c2ncccc12 (stereo not shown) [Compound P-0382]
≤ 10 µM	≤ 10 µM	–	–	–	–	–	–	COC(c1ccc(NCc2ccc(Cl)c(C(F)(F)F)c2)nc1)c1c[nH]c2ncccc12 (stereo not shown) [Compound P-1064]
≤ 10 µM	–	≤ 10 µM	≤ 10 µM	–	≤ 10 µM	≤ 10 µM	–	CCCS(=O)(=O)Nc1ccc(F)c(C(=O)c2c[nH]c3ncc(C(=O)OC)cc23)c1F [Compound P-1552, 3-[2,6-difluoro-3-(propane-1-sulfonylamino)-benzoyl]-1H-pyrrolo[2,3-b]pyridine-5-carboxylic acid methyl ester]
≤ 10 µM	≤ 10 µM	≤ 10 µM	–	–	–	–	–	O=S(=O)(Nc1ccc(F)c(C(O)c2c[nH]c3ncc(Br)cc23)c1F)c1ccccc1 (stereo not shown) [Compound P-0959]
≤ 10 µM	≤ 10 µM	–	–	–	–	≤ 10 µM	–	O=C(c1cccc(OC(F)(F)F)c1)c1c[nH]c2ncc(-c3cccnc3)cc12 [Compound P-1413, (5-Pyridin-3-yl-1H-pyrrolo[2,3-b]pyridin-3-yl)-(3-trifluoromethoxy-phenyl)-methanone]
–	≤ 10 µM	≤ 10 µM	–	–	–	–	–	O=[N+]([O-])c1cccc(Nc2ccnc3[nH]ccc23)c1 [Compound P-0973]
–	≤ 10 µM	≤ 10 µM	–	–	–	–	–	Fc1ccc(Nc2ccnc3[nH]ccc23)cc1F [Compound P-0987]
≤ 10 µM	–	≤ 10 µM	≤ 10 µM	≤ 10 µM	≤ 10 µM	≤ 10 µM	–	CCCS(=O)(=O)Nc1ccc(F)c(C(=O)c2c[nH]c3ncc(-c4cccc(F)c4)cc23)c1F [Compound P-1259, Propane-1-sulfonic acid {2,4-difluoro-3-[5-(3-fluoro-phenyl)-1H-pyrrolo[2,3-b]pyridine-3-carbonyl]-phenyl}-amide]
≤ 10 µM	≤ 10 µM	–	–	–	–	–	–	CCC(C(=O)c1c[nH]c2ncccc12)S(=O)(=O)Nc1cc(F)cc(F)c1 (stereo not shown) [Compound P-1070]
–	≤ 10 µM	–	–	–	–	–	–	CC1CCN(c2cnc3[nH]ccc3c2)CC1 [Compound P-1122]
≤ 10 µM	–	≤ 10 µM	≤ 10 µM	≤ 10 µM	≤ 10 µM	≤ 10 µM	–	CS(=O)(=O)Nc1cccc(-c2cnc3[nH]cc(C(=O)c4cccc(OC(F)F)c4)c3c2)c1 [Compound P-1430, N-{3-[3-(3-Difluoromethoxy-benzoyl)-1H-pyrrolo[2,3-b]pyridin-5-yl]-phenyl}-methanesulfonamide]
≤ 10 µM	–	≤ 10 µM	≤ 10 µM	≤ 10 µM	≤ 10 µM	≤ 10 µM	–	O=C(c1c(F)ccc(OC(F)F)c1F)c1c[nH]c2ncc(-c3cccnc3)cc12 [Compound P-1528, (3-Difluoromethoxy-2,6-difluoro-phenyl)-(5-pyridin-3-yl-1H-pyrrolo[2,3-b]pyridin-3-yl)-methanone]
–	≤ 10 µM	–	–	–	–	–	–	CCCNC(=O)c1ccc(OC)c(C(=O)c2c[nH]c3ncc(-c4cccnc4)cc23)c1F [Compound P-1077]
≤ 10 µM	≤ 10 µM	–	–	–	–	–	–	Fc1cnc2[nH]ccc2c1 [Compound P-1061]

Compound	IC50 (B-Raf V600E)	IC50 (c-Raf-1)	IC50 (B-Raf)	IC50 (Flt1)	IC50 (FGFR1)	IC50 (Fms)	IC50 (Kit)	IC50 (Ret)
CCCCOc1ccc(S(=O)(=O)Nc2ccc(F)c(C(=O)c3c[nH]c4ncccc34)c2F)cc1 [Compound P-1006, 4-Butoxy-N-[2,4-difluoro-3-(1H-pyrrolo[2,3-b]pyridine-3-carbonyl)-phenyl]-benzenesulfonamide]	≤ 10 µM	≤ 10 µM	≤ 10 µM	–	–	–	–	–

— US8415469B2, “Compounds and methods for kinase modulation, and indications therefor” (Plexxikon Inc., priority 2005, dated 2013)
